Laboratory results taken from patent US20050203174A1, “Combination therapies using leptomycin B” (Kosan Biosciences, Inc., priority 2004, published 2005).

Tested on: colon cancer cell line DLD-1
Test: Cell viability assay (CellTiter-Glo) and combination effect analysis of leptomycin B plus co-agent
Type: cell-based, Human
Settings: combination with leptomycin B, DLD-1 cells, average CI over fraction affected 0.2 to 0.9; for Combination Index, LMB First: 24 hours of LMB, then drug added and incubated for 48 hours; for Combination Index, Co-Agent First: drug alone for 24 hours followed by addition of LMB for 48 hours; for Combination Index, Simultaneous: simultaneous exposure to LMB and drug for 72 hours, constant ratio of IC50s
Description: The efficacy of a combination of leptomycin B and specific chemotherapeutic co-agents was determined. The additive, synergistic, or antagonistic effect of the combination of leptomycin B and a co-agent was calculated for each administration regimen using Calcusyn software (Biosoft, Cambridge, United Kingdom). This software calculates a combination index using the following algorithm: CI=[D]1/[Dx]1+[D]2/[Dx]2 where • CI is the combination index; • [D]1 and [D]2 are the concentrations of the two agents being tested (i.e., LMB and the co-agent) that, in combination provide a response of x % in the assay; and • [Dx]1 and [Dx]2 are the concentrations of the two agents that, when used alone, produce a response of x % in the assay.
A CI value of one means the combined effect of the two agents is additive. A CI value of less than one means that the two agents act synergistically. A CI value of greater than one means that the two agents act antagonistically.
The area under the curve where the fraction affected of cells (FA) ranged from 0.2 to 0.9 was calculated, to generate average CI values as shown in Table 1 for colon cancer cell line DLD-1.
Human colon adenocarcinoma cell line, DLD-1, was obtained from American Type Culture Collection (Manassas, Va.). […] Leptomycin B was produced by fermentation of a high producing isolate from Streptomyces sp. […] LMB is also available from commercial sources, such as Sigma-Aldrich. Other anti-cancer agents were either purchased commercially (e.g., from Sigma Chemical Co. (St. Louis, Mo.) or from Sequoia Research Products (Oxford, UK)).
Cells were seeded in duplicate in 96-well microtiter plates at a density of 4,000 cells per well and allowed to attach overnight. Cells were treated with LMB and the corresponding cytotoxic drug at varying concentrations, ranging from 0.5 picomolar (“pM”) to 50 micromolar (“μM”), for 3 days. Cell viability was determined using the CellTiter-Glo luminescent cell viability assay (Promega). For the drug combination assay, cells were seeded in duplicate in 96-well plates (4,000 cells/well). […] Based on the IC50 values of each individual drug, combined drug treatment was designed at constant ratios of two drugs, i.e., equivalent to the ratio of their IC50. Three treatment schedules were used: The first schedule used simultaneous exposure to both LMB and drug for 72 hours. In the second schedule, the cells were exposed to 24 hours of LMB. The drug was then added to the cells and incubated for 48 hours. In the third schedule, cells were exposed to the drug alone for 24 hours followed by addition of LMB for 48 hours. Cell viability was determined by the CellTiter-Glo luminescent cell viability assay. Synergism, additivity, or antagonism was determined by median effect analysis using the combination index (CI) calculated using Calcusyn (Biosoft, Cambridge, UK), as described above.

Structure (SMILES): C=CCNC1=C2C[C@@H](C)C[C@H](OC)[C@H](O)[C@@H](C)/C=C(\C)[C@H](OC(N)=O)[C@@H](OC)/C=C\C=C(/C)C(=O)NC(=CC1=O)C2=O [17-AAG, 17-allylamino-17-demethoxygeldanamycin]
- Combination Index, LMB First: 1.13 ± 0.05
- Combination Index, Co-Agent First: 0.91 ± 0.09
- Combination Index, Simultaneous: 1.15 ± 0.06

Structure (SMILES): CCC1(c2ccc(N)cc2)CCC(=O)NC1=O (stereo not drawn) [Aminoglutethimide, aminoglutethimide]
- Combination Index, LMB First: 0.82 ± 0.05
- Combination Index, Co-Agent First: 1.02 ± 0.18
- Combination Index, Simultaneous: 0.89 ± 0.07

Structure (SMILES): CC(O)(CS(=O)(=O)c1ccc(F)cc1)C(=O)Nc1ccc(C#N)c(C(F)(F)F)c1 (stereo not drawn) [Bicalutamide, bicalutamide]
- Combination Index, LMB First: 1.48 ± 0.32
- Combination Index, Co-Agent First: 1.05 ± 0.02
- Combination Index, Simultaneous: 1.02 ± 0.01

Structure (SMILES): CC(=O)O[C@@]12CO[C@@H]1C[C@H](O)[C@@]1(C)C(=O)[C@H](O)C3=C(C)[C@@H](OC(=O)[C@H](O)[C@@H](NC(=O)OC(C)(C)C)c4ccccc4)C[C@@](O)([C@@H](OC(=O)c4ccccc4)[C@H]21)C3(C)C [Docetaxel, docetaxel]
- Combination Index, LMB First: 1.06 ± 0.04
- Combination Index, Co-Agent First: 0.95 ± 0.07
- Combination Index, Simultaneous: 1.19 ± 0.14

Structure (SMILES): COc1cccc2c1C(=O)c1c(O)c3c(c(O)c1C2=O)C[C@@](O)(C(=O)CO)C[C@@H]3O[C@H]1C[C@H](N)[C@H](O)[C@H](C)O1 [Doxorubicin, doxorubicin]
- Combination Index, LMB First: 0.96 ± 0.05
- Combination Index, Co-Agent First: 0.89 ± 0.01
- Combination Index, Simultaneous: 0.84 ± 0.12

Structure (SMILES): C/C1=C/C[C@@H](/C(C)=C/c2csc(C)n2)OC(=O)C[C@H](O)C(C)(C)C(=O)[C@H](C)[C@@H](O)[C@@H](C)CCC1 [Epo D, epothilone D]
- Combination Index, LMB First: 1.05 ± 0.03
- Combination Index, Co-Agent First: 0.92 ± 0.05
- Combination Index, Simultaneous: 1.06 ± 0.10

Structure (SMILES): Nc1ccn([C@@H]2O[C@H](CO)[C@@H](O)C2(F)F)c(=O)n1 [Gemcitabine, gemcitabine]
- Combination Index, LMB First: 1.18 ± 0.05
- Combination Index, Co-Agent First: 0.71 ± 0.31
- Combination Index, Simultaneous: 0.97 ± 0.25

Structure (SMILES): CCc1c2c(nc3ccc(OC(=O)N4CCC(N5CCCCC5)CC4)cc13)-c1cc3c(c(=O)n1C2)COC(=O)[C@]3(O)CC [Irinotecan, irinotecan]
- Combination Index, LMB First: 0.77 ± 0.05
- Combination Index, Co-Agent First: 0.50 ± 0.001
- Combination Index, Simultaneous: 0.92 ± 0.08

Structure (SMILES): CC[C@H](C)[C@@H](COC(Cc1ccccc1)C(=O)N[C@@H](CCS(C)(=O)=O)C(=O)OC(C)C)NC[C@@H](N)CS (stereo partly drawn) [L-744832]
- Combination Index, LMB First: 0.82 ± 0.05
- Combination Index, Co-Agent First: 0.86 ± 0.11
- Combination Index, Simultaneous: 0.84 ± 0.09

Structure (SMILES): O=C(CCCCCCC(=O)Nc1ccccc1)NO [SAHA, suberoylanilide hydroxamic acid]
- Combination Index, LMB First: 0.91 ± 0.04
- Combination Index, Co-Agent First: 1.03 ± 0.11
- Combination Index, Simultaneous: 0.88 ± 0.04
